Measurements: the supplement of paper PMC8612539

System: Histophilus somni
Experiment: minimum inhibitory concentration (MIC)
Method: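 Broth microdilution MIC (Sensititre BOPO7F bovine plate, CLSI methods) of 19 antimicrobials against field isolates of P. multocida, M. haemolytica, H. somni (deep nasopharyngeal swabs) and E. coli, Enterococcus spp. (rectal swabs) from weaned dairy heifers. Incubation 16-24 h at 35 C. MIC is the lowest concentration preventing visible growth. Values with <= or > lie at the tested range limits. Trimethoprim-sulfamethoxazole is given as the trimethoprim component of a 1:19 mixture.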

CO/N=C(\C(=O)N[C@@H]1C(=O)N2C(C(=O)O)=C(CSC(=O)c3ccco3)CS[C@H]12)c1csc(N)n1 [Ceftiofur]
Conditions	minimum inhibitory concentration [µg/mL]
isolate (source animal id): 3	≤ 0.25
isolate (source animal id): 4	≤ 0.25
isolate (source animal id): 7	≤ 0.25
isolate (source animal id): 14	≤ 0.25
isolate (source animal id): 15	≤ 0.25
isolate (source animal id): 17	≤ 0.25
isolate (source animal id): 18	≤ 0.25
isolate (source animal id): 20	≤ 0.25
isolate (source animal id): 23	≤ 0.25
isolate (source animal id): 45	≤ 0.25
isolate (source animal id): 53	≤ 0.25
isolate (source animal id): 83	≤ 0.25
isolate (source animal id): 88	≤ 0.25
isolate (source animal id): 92	≤ 0.25
isolate (source animal id): 93	≤ 0.25
isolate (source animal id): 99	≤ 0.25
isolate (source animal id): 100	≤ 0.25
isolate (source animal id): 105	≤ 0.25
isolate (source animal id): 107	≤ 0.25
isolate (source animal id): 108	≤ 0.25
isolate (source animal id): 109	≤ 0.25
isolate (source animal id): 110	≤ 0.25
isolate (source animal id): 117	≤ 0.25
isolate (source animal id): 121	≤ 0.25
isolate (source animal id): 123	≤ 0.25
isolate (source animal id): 124	≤ 0.25
isolate (source animal id): 127	≤ 0.25
isolate (source animal id): 128	≤ 0.25
isolate (source animal id): 130	≤ 0.25
isolate (source animal id): 132	≤ 0.25
isolate (source animal id): 135	≤ 0.25
isolate (source animal id): 140	≤ 0.25
isolate (source animal id): 141	≤ 0.25
isolate (source animal id): 142	≤ 0.25
isolate (source animal id): 144	≤ 0.25
isolate (source animal id): 146	≤ 0.25
isolate (source animal id): 147	≤ 0.25
isolate (source animal id): 151	≤ 0.25
isolate (source animal id): 153	≤ 0.25
isolate (source animal id): 154	≤ 0.25
isolate (source animal id): 156	≤ 0.25
isolate (source animal id): 157	≤ 0.25
isolate (source animal id): 176	≤ 0.25
isolate (source animal id): 183	≤ 0.25
isolate (source animal id): 186	≤ 0.25
isolate (source animal id): 196	≤ 0.25
isolate (source animal id): 198	≤ 0.25
isolate (source animal id): 200	≤ 0.25
isolate (source animal id): 206	≤ 0.25
isolate (source animal id): 208	≤ 0.25
isolate (source animal id): 210	≤ 0.25
isolate (source animal id): 212	≤ 0.25
isolate (source animal id): 215	≤ 0.25
isolate (source animal id): 216	≤ 0.25
isolate (source animal id): 218	≤ 0.25
isolate (source animal id): 219	≤ 0.25
isolate (source animal id): 224	≤ 0.25
isolate (source animal id): 228	≤ 0.25
isolate (source animal id): 230	≤ 0.25
isolate (source animal id): 233	≤ 0.25
isolate (source animal id): 238	≤ 0.25
isolate (source animal id): 239	≤ 0.25
isolate (source animal id): 241	≤ 0.25
isolate (source animal id): 242	≤ 0.25
isolate (source animal id): 243	≤ 0.25
isolate (source animal id): 245	≤ 0.25
isolate (source animal id): 246	≤ 0.25
isolate (source animal id): 247	≤ 0.25
isolate (source animal id): 248	≤ 0.25
isolate (source animal id): 250	≤ 0.25
isolate (source animal id): 251	≤ 0.25
isolate (source animal id): 252	≤ 0.25
isolate (source animal id): 254	≤ 0.25
isolate (source animal id): 258	≤ 0.25
isolate (source animal id): 259	≤ 0.25
isolate (source animal id): 262	≤ 0.25
isolate (source animal id): 264	≤ 0.25
isolate (source animal id): 265	≤ 0.25
isolate (source animal id): 266	≤ 0.25
isolate (source animal id): 267	≤ 0.25
isolate (source animal id): 269	≤ 0.25
isolate (source animal id): 271	≤ 0.25
isolate (source animal id): 272	≤ 0.25
isolate (source animal id): 274	≤ 0.25
isolate (source animal id): 276	≤ 0.25
isolate (source animal id): 278	≤ 0.25
isolate (source animal id): 280	≤ 0.25
isolate (source animal id): 281	≤ 0.25
isolate (source animal id): 283	≤ 0.25
isolate (source animal id): 288	≤ 0.25
isolate (source animal id): 291	≤ 0.25
isolate (source animal id): 292	≤ 0.25
isolate (source animal id): 296	≤ 0.25
isolate (source animal id): 306	≤ 0.25
isolate (source animal id): 336	≤ 0.25
isolate (source animal id): 337	≤ 0.25
isolate (source animal id): 341	≤ 0.25

CN1C[C@@H]2C[C@H]1CN2c1cc2c(cc1F)c(=O)c(C(=O)O)cn2C1CC1 [Danofloxacin]
Conditions	minimum inhibitory concentration [µg/mL]
isolate (source animal id): 3	≤ 0.12
isolate (source animal id): 4	≤ 0.12
isolate (source animal id): 7	≤ 0.12
isolate (source animal id): 14	≤ 0.12
isolate (source animal id): 15	≤ 0.12
isolate (source animal id): 17	≤ 0.12
isolate (source animal id): 18	≤ 0.12
isolate (source animal id): 20	≤ 0.12
isolate (source animal id): 23	≤ 0.12
isolate (source animal id): 45	≤ 0.12
isolate (source animal id): 53	≤ 0.12
isolate (source animal id): 83	≤ 0.12
isolate (source animal id): 88	≤ 0.12
isolate (source animal id): 92	≤ 0.12
isolate (source animal id): 93	≤ 0.12
isolate (source animal id): 99	≤ 0.12
isolate (source animal id): 100	≤ 0.12
isolate (source animal id): 105	≤ 0.12
isolate (source animal id): 107	≤ 0.12
isolate (source animal id): 108	≤ 0.12
isolate (source animal id): 109	≤ 0.12
isolate (source animal id): 110	≤ 0.12
isolate (source animal id): 117	≤ 0.12
isolate (source animal id): 121	≤ 0.12
isolate (source animal id): 123	≤ 0.12
isolate (source animal id): 124	≤ 0.12
isolate (source animal id): 127	≤ 0.12
isolate (source animal id): 128	≤ 0.12
isolate (source animal id): 130	≤ 0.12
isolate (source animal id): 132	≤ 0.12
isolate (source animal id): 135	≤ 0.12
isolate (source animal id): 140	≤ 0.12
isolate (source animal id): 141	≤ 0.12
isolate (source animal id): 142	≤ 0.12
isolate (source animal id): 144	≤ 0.12
isolate (source animal id): 146	≤ 0.12
isolate (source animal id): 147	≤ 0.12
isolate (source animal id): 151	≤ 0.12
isolate (source animal id): 153	≤ 0.12
isolate (source animal id): 154	≤ 0.12
isolate (source animal id): 156	≤ 0.12
isolate (source animal id): 157	≤ 0.12
isolate (source animal id): 176	≤ 0.12
isolate (source animal id): 183	≤ 0.12
isolate (source animal id): 186	≤ 0.12
isolate (source animal id): 196	≤ 0.12
isolate (source animal id): 198	≤ 0.12
isolate (source animal id): 200	≤ 0.12
isolate (source animal id): 206	≤ 0.12
isolate (source animal id): 208	≤ 0.12
isolate (source animal id): 210	≤ 0.12
isolate (source animal id): 212	≤ 0.12
isolate (source animal id): 215	≤ 0.12
isolate (source animal id): 216	≤ 0.12
isolate (source animal id): 218	≤ 0.12
isolate (source animal id): 219	≤ 0.12
isolate (source animal id): 224	≤ 0.12
isolate (source animal id): 228	≤ 0.12
isolate (source animal id): 230	≤ 0.12
isolate (source animal id): 233	≤ 0.12
isolate (source animal id): 238	≤ 0.12
isolate (source animal id): 239	≤ 0.12
isolate (source animal id): 241	≤ 0.12
isolate (source animal id): 242	≤ 0.12
isolate (source animal id): 243	≤ 0.12
isolate (source animal id): 245	≤ 0.12
isolate (source animal id): 246	≤ 0.12
isolate (source animal id): 247	≤ 0.12
isolate (source animal id): 248	≤ 0.12
isolate (source animal id): 250	≤ 0.12
isolate (source animal id): 251	≤ 0.12
isolate (source animal id): 252	≤ 0.12
isolate (source animal id): 254	≤ 0.12
isolate (source animal id): 258	≤ 0.12
isolate (source animal id): 259	≤ 0.12
isolate (source animal id): 262	≤ 0.12
isolate (source animal id): 264	≤ 0.12
isolate (source animal id): 265	≤ 0.12
isolate (source animal id): 266	≤ 0.12
isolate (source animal id): 267	≤ 0.12
isolate (source animal id): 269	≤ 0.12
isolate (source animal id): 271	≤ 0.12
isolate (source animal id): 272	≤ 0.12
isolate (source animal id): 274	≤ 0.12
isolate (source animal id): 276	≤ 0.12
isolate (source animal id): 278	≤ 0.12
isolate (source animal id): 280	≤ 0.12
isolate (source animal id): 281	≤ 0.12
isolate (source animal id): 283	≤ 0.12
isolate (source animal id): 288	≤ 0.12
isolate (source animal id): 291	≤ 0.12
isolate (source animal id): 292	≤ 0.12
isolate (source animal id): 296	≤ 0.12
isolate (source animal id): 306	≤ 0.12
isolate (source animal id): 336	≤ 0.12
isolate (source animal id): 337	≤ 0.12
isolate (source animal id): 341	≤ 0.12
